Source: paper PMC5982112 (Peptides, 2018)
Ends that are not written are not given here.

Columns and labels:
[1] = test system: Escherichia coli (ATCC 25922); experiment: Broth dilution sterilization assay, E. coli; assay type: cell-based; conditions: lowest concentration that completely sterilizes bacteria in media, mean of at least three independent measurements
[2] = test system: Pseudomonas aeruginosa (PA01, ATTC 47085); experiment: Broth dilution sterilization assay, P. aeruginosa; assay type: cell-based; conditions: lowest concentration that completely sterilizes bacteria in media, mean of at least three independent measurements
[3] = test system: Staphylococcus aureus (ATCC 25923); experiment: Broth dilution sterilization assay, S. aureus; assay type: cell-based; conditions: lowest concentration that completely sterilizes bacteria in media, mean of at least three independent measurements
Bacillus cereus = experiment: Broth dilution sterilization assay, B. cereus; assay type: cell-based; conditions: lowest concentration that completely sterilizes bacteria in media, mean of at least three independent measurements
[4] = test system: bloodstream (infective) form of Trypanosoma brucei; conditions: cited from earlier work
E. coli = conditions: ref 17 (El Karim et al.); cited from earlier work
S. aureus = conditions: ref 17 (El Karim et al.); cited from earlier work
[5] = test system: procyclic (noninfective) form of T. brucei; conditions: cited from earlier work
[6] = test system: Escherichia coli (ATCC 25922); assay type: cell-based
[7] = test system: Staphylococcus aureus (ATCC 25923); assay type: cell-based

| Substance | EC Broth, minimum inhibitory concentration (MIC) [1] [µM] | PA Broth, minimum inhibitory concentration (MIC) [2] [µM] | SA Broth, minimum inhibitory concentration (MIC) [3] [µM] | BC Broth, minimum inhibitory concentration (MIC) (Bacillus cereus) [µM] | Killing of bloodstream (infective) form of Trypanosoma brucei [4] | Activity against E. coli (E. coli) | Activity against S. aureus (S. aureus) | Effect on procyclic (noninfective) form of T. brucei [5] | EC Radial Diffusion, minimum inhibitory concentration (MIC) [6] [µM] | SA Radial Diffusion, minimum inhibitory concentration (MIC) [7] [µM] |
| --- | --- | --- | --- | --- | --- | --- | --- | --- | --- | --- |
| PACAP(6–38) | >30 | 30.0 | >30 | >30 | effective |  |  |  |  |  |
| [Ala^22]PACAP38 | 2.15 | 0.52 | >30 | 4.84 |  |  |  |  |  |  |
| [Pip^3,Aib^16,28,Ala^17,21,Lys^34,D-Lys^38]PACAP38 | 1.43 | 0.64 | >30 | 7.26 |  |  |  |  |  |  |
| vasoactive intestinal peptide [VIP] | >30 | 30.0 | >30 | >30 |  | had activity against E. coli | not against S. aureus |  |  |  |
| PACAP27 | >30 | 23.6 | >30 | >30 |  |  |  |  |  |  |
| indolicidin | 6.24 | >50 | 7.9 | 10.7 |  |  |  |  |  |  |
| Pituitary adenylate cyclase-activating polypeptide [PACAP38] | 28.3 | 1.2 | >30 | 23.3 | killed |  |  | resistant |  |  |
| [Pip^3,Aib^16,28,Ala^17,Lys^34,D-Lys^38]PACAP38 | 2.15 | 0.52 | >30 | 3.95 |  |  |  |  |  |  |
| RRGWALRLVLAY-NH2 [ARVA] | 2.3 | 4.3 | 5.1 | 6.4 |  |  |  |  | 1.57 | 3.46 |
| [D-Ser^2]PACAP38 | >30 | 6.1 | >30 | 13.6 |  |  |  |  |  |  |
| [Pip^3]PACAP38 | >30 | 8.9 | >30 | 8.9 |  |  |  |  |  |  |
